“Also recorded” adds a separate entry of the source.
What was measured:
Format in all cases: cell-based, human
IR condensates [1] = assay: Imaging of IR puncta/condensates (immunofluorescence, IR-GFP) in HepG2 cells
Experimental: For insulin sensitivity and resistance experiments in HepG2 cells, cells were washed with EMEM once and cultured in EMEM for two days. […] To wash out insulin, cells were washed in EMEM seven times, which includes three quick washes, three 5 min washes and a long 20 minute-wash in EMEM at 37° C. In order to investigate insulin response, cells were acutely treated for 5 min with insulin diluted in EMEM supplemented with 1.25% fatty acid-free BSA at 37° C. with 5% CO2 in a humidified incubator.
Metformin (SIGMA, D150959-5G) was resuspended in sterile water to a concentration of 1M and diluted to the reported concentrations in the figures in cell media. […]
HepG2 cells, human liver spheroids and human tissue liver sections were fixed in 4% PFA (VWR, BT140770-10X10) in PBS for 10 min at room temperature. Cells were washed in PBS three times for 5 min and then blocked with 4% IgG-free BSA (VWR, 102643-516) for 15-60 min at room temperature. Cells were then incubated with 1:500 primary antibody in 4% IgG-free BSA at 4° C. overnight. The next day, cells were washed three times with PBS and incubated with 1:500 secondary antibodies in 4% IgG-free BSA at room temperature for 1 hr covered in foil. Cells were washed three times with PBS for 5 min. DNA was stained using 1:5000 Hoechst in PBS for 5 min at RT. Cells were washed three times with PBS for 5 min, stored at 4° C. until imaging. For tissue sections, samples were mounted using Vectashield mounting media (Vector Laboratories, Inc, H-1000). LSM880 microscope with Airyscan detector (ZEISS) was used for image acquisition. Images were then processed using Fiji/ImageJ v2.1.0/153c.
Cells expressing endogenous IR tagged with GFP were grown on 35 mm glass bottom dishes (MatTek Corporation, P35G-1.5-20-C). Cells were imaged at 37° C. using the SM880 Microscope with Airyscan detector with 63× objective and Zen Black software (ZEISS) at the W.M. Keck Microscopy Facility, MIT. Images were then processed using Fiji/ImageJ v2.1.0/153c.
To quantify IR fluorescent signal in puncta, Fiji/ImageJ v2.1.0/153c was used. A circle or an oval was drawn around IR puncta using the oval selection tool and the average fluorescence intensity in the circle/oval (=in the puncta) was determined using the measure tool on Fiji. Background was then subtracted as previously described. To quantify IR fluorescent signal at puncta in various cellular compartments, applicant identified the location of the plasma membrane, cytoplasm, nucleus and RNA FISH spots as follows. The plasma membrane location was identified based on IR immunofluorescence signal, IR-GFP fluorescent signal or CK18 immunofluorescence signal or cell edge. The nucleus was determined by the Hoechst stain for immunofluorescence and tc-PALM experiments or by IR-GFP fluorescence when HepG2 cells expressing IR-GFP were imaged. Given the overlap between Hoechst fluorescence and GFP fluorescence, artefactual green fluorescence coming from the Hoechst confounded IR puncta identification in the nucleus. Since the differences in IR puncta intensity and concentration between cytoplasm and nucleus in HepG2 cells was clear, nuclear outline was easily drawn based on IR-GFP fluorescent signal. Cytoplasm was considered the region between the plasma membrane and the nucleus. RNA FISH spots were identified based on RNA FISH probe fluorescence. Within the FISH spot, IR intensity was measured using the measure tool.
To estimate the number of IR puncta at the plasma membrane, cytoplasm, nucleus or in entire cells, IR puncta were initially counted in a cell slice using Fiji. The number obtained from the cell slice was then multiplied based on the estimated size of the plasma membrane, cytoplasm, nucleus or entire cell, which were obtained considering the length and width of the cell under investigation and the estimated height (˜5 um). […]

IR condensates [2] = assay: tc-PALM of IR cluster/condensate dynamics in HepG2 cells expressing IR-Dendra2; details: insulin sensitive cells; 20 mM H2O2
Experimental: Widefield Live-cell super-resolution imaging was performed in a photo-activation localization microscopy (PALM) approach using a Nikon Eclipse Ti microscope with a 100× oil immersion objective. The 405 nm and 561 nm laser beams were combined in an external platform with customized power densities to image Dendra2-tagged molecules as previously reported (56). Cells were maintained at 37° C. in a temperature-controlled platform during imaging, and the CO2 level was maintained at 5% by Leibovitz's L-15 Medium with no phenol red (ThermoFisher #21083027). In each imaging cycle, a 2400-frame video stream including a (256 pixel)2 region of interest (ROI) was recorded in 20 Hz acquisition rate with the EM-gain setting as 1000 on an Andor iXon Ultra 897 EMCCD. Each pixel conjugates with a (160 nm)2 area on the sample side. After PALM imaging, the Hoechst-stained nuclei of the same ROI were imaged with stronger 405 nm excitation through DAPI filter.
Detection localization. For each frame of a raw image, Gaussian particles were identified by pixelwise test of hypotheses, whose peak positions were individually fitted at subpixel resolution by maximum-likelihood regression with Gauss-Newton method (91). An additional deflation loop was performed to avoid missing dimmer particles when they were overshadowed by neighboring brighter ones. This multi-particle detection localization procedure has been integrated in a published, open-source MATLAB software called MTT (91).
Spatial clustering. DBSCAN and “manual selection” hybridized approach was applied to group spatially clustered detections via the qSR software (92). Firstly, DBSCAN was performed to generalize a proposal map of spatially clustered detections. Given that IR condensates can be tiny and transient, a “loose” parameter setting was used when performing the DBSCAN (length-scale=120 nm, N_min=4). This parameter combination was determined by comparing the rendered super-resolved reconstructions with the color-coded cluster maps until the clustering results visually make sense for most ROIs. Secondly, individual clusters were manually selected based on the clustering proposal map from last step. Some custom MATLAB code was used to reconstruct the IR distribution of each ROI superposed with the corresponding nuclei image, which was further cross-compared with the corresponding cluster map to determine which region each cluster belongs to (i.e., plasma-membrane, cytoplasm, or nucleus).
Temporal clustering. For each spatial cluster, time-correlated PALM (tc-PALM) analysis was performed along the time axis to extract the truly colocalized, time-correlated multimolecule bursting events (11, 13-14). The lifetime of a burst is simply defined as the timespan from the first to the last detections. More details about the quantitative validations and statistics of tc-PALM analysis can be found in NOTES and FIG. 11.
Widefield, live-cell, super-resolution imaging was performed in a photo-activation localization microscopy (PALM) approach using a Nikon Eclipse Ti microscope with a 100× oil immersion objective. The 405 nm and 561 nm laser beams were combined in an external platform with customized power densities to image Dendra2-tagged molecules as previously reported^24. Cells were cultured on imaging dishes (MatTek, P35G-1.5-20-C) and then imaged while maintaining both the temperature at 37° C. with a temperature-controlled platform and the level of CO2 at 5% with Leibovitz's L-15 Medium with no phenol red (Thermo Fisher, 21083027). During each imaging cycle, a 2400-frame video stream including a (256 pixel)^2 region of interest (ROI) was recorded in 20 Hz acquisition rate with the EM-gain setting as 1000 on an Andor iXon Ultra 897 EMCCD. Each pixel conjugates with a (160 nm)^2 area on the sample side. After PALM imaging, the Hoechst-stained nuclei of the same ROI were imaged using a stronger 405 nm excitation through DAPI filter. […] Following a 5-minute wait, the cells were imaged for 15-20 minutes.

[3] = system: transcriptional condensates at SMAD7; assay: IR-GFP and SMAD7 intronic RNA FISH colocalization in HepG2 cells; details: insulin sensitive cells; H2O2; 3 nM insulin 5 min (FIG. 6E)

Structure (SMILES) | incorporation of IR into condensates with insulin stimulation (IR condensates [1]; insulin sensitive cells, 20 mM H2O2 for 30 min) | IR condensate dynamics (IR condensates [2]) | IR incorporation in transcriptional condensates [3] | IR condensates defects (signal intensity and lifetime) (IR condensates [1]; insulin-resistant cells, 1 mM NAC 24 hours (FIGS. 19E-19F, 40B))
OO [H2O2, reference compound] | caused a reduction in the incorporation of IR into condensates with insulin stimulation | caused reduced IR condensate dynamics; also recorded: altered IR condensate dynamics | caused a reduction in IR incorporation in transcriptional condensates | 
CC(=O)N[C@@H](CS)C(=O)O [NAC, N-acetyl cysteine, reference compound] |  |  |  | partially rescued IR condensates defects

— US20250186379A1, “METHODS AND AGENTS FOR DECREASING INSULIN RESISTANCE” (Whitehead Institute for Biomedical Research, priority 2021, published 2025)
